{"source": "patent EP4380555B1", "about": "“COMPOSITION COMPRISING D-MANNOSE, N-ACETYLCYSTEINE AND PALMITOYLETHANOLAMIDE AND ITS USE FOR THE TREATMENT OF URIRNARY TRACT INFECTIONS” (Agave S.r.l., priority 2021, dated 2023)", "type_in_all_cases": "cell-based", "key": {"[1]": {"test_system": "Escherichia coli (DSM 1576)", "assay": "MIC determination by broth dilution (CLSI M07), 96-well plates", "settings": "Escherichia coli, DSM1576; E. coli, 37°C, 24 h", "experimental": "(§1) The antimicrobial activity of the product Comp. 1 in Example 10 was tested in vitro according to method CLSI M07 \"Methods for dilution Antimicrobial susceptibility tests for bacteria that grow aerobically\".\n(§2) For this purpose, the MIC (Minimum Inhibitory Concentration) values were determined with respect to the main microorganisms responsible for urinary tract infections.\n(§3) More specifically, the microorganisms utilised were: Escherichia coli (DSM 1576), Klebsiella pneumoniae (DSM 30104), and Enterococcus faecalis(DSM 20477).\n(§4) For each experiment conducted, the bacteria stated above were revived from a cell bank stored at -80°C. […]\n(§5) The assay to determine the MIC was conducted in 96-well plates testing 12 concentrations (serial dilutions) of each sample. 200 µL of the sample, prepared at a concentration of 2x with respect to the maximum concentration being tested, was dispensed into the first well and 100 µL medium was added to the subsequent wells, performing serial dilutions of 1:2 up to 12th well. Finally, 100 µL of each microorganism at a concentration of 10^5 was inoculated into each well.\n(§6) Two antibiotics were used as controls: Fosfomycin (Sigma) and Ceftriaxone (Sigma) at different final concentrations based on the microorganism utilised; both the antibiotics were dissolved in sterile water and then filtered with 0.22 µm filters.\n(§7) Growth was tested and the sterility of the medium and of the product was tested. The antimicrobial activity of the D-mannose was also assessed individually. The plates thus prepared were incubated at 37°C for 24h and the results were then observed (Figure 1). The final concentrations tested for each product analysed are stated in Table 2."}, "[2]": {"test_system": "Klebsiella pneumoniae (DSM 30104)", "assay": "MIC determination by broth dilution (CLSI M07), 96-well plates", "settings": "Klebsiella pneumoniae, DSM30104; Klebsiella, 37°C, 24 h", "experimental": "as §1, §2, §3, §4, §5, §6, §7"}, "[3]": {"test_system": "Enterococcus faecium", "assay": "MIC determination by broth dilution (CLSI M07), 96-well plates", "settings": "Enterococcus faecium; E. faecium, 37°C, 24 h"}, "[4]": {"test_system": "Enterococcus faecium", "assay": "Minimum biofilm inhibitory concentration (MBIC), crystal violet staining, comparison with fosfomycin", "settings": "E. faecium; 24 h", "experimental": "(§8) The capacity of the product Comp. […] The formation of the biofilm was viewed by means of Crystal Violet staining, wherein the stain penetrates the bacterial cells and turns them purple. To determine the MBIC, 48-well plates were utilised. 200 µL of the sample, prepared at a concentration of 2x with respect to the maximum concentration being tested, was dispensed into the first well and 100 µL of medium was added to the subsequent wells, performing serial dilutions of 1:2 up to the 8th well. Finally, 100 µL of each microorganism at a concentration of 10^5 were inoculated into each well. The biofilm inhibition activity of the fosfomycin, at a lower concentration with respect to the MIC value measured in Example 10, was also assessed and the sterility and growth tests were performed for each microorganism. The multiwell plates were incubated at 37°C for 24 hours and then the supernatant present was removed, together with the planktonic bacteria not attached to the plate. The biofilm was then washed 3 times with PBS and subsequently the cells were fixed by means of incubation at 60°C for 2 hours, before being stained with crystal violet. The crystal violet staining was performed to assess the effect of the product and the fosfomycin on the formation of the biofilm. 50 µL crystal violet dissolved in deionised water was dispensed into each well and, after 5 minutes of incubation at room temperature, each well was finally washed three times with PBS 1x. The biofilm inhibition activity was viewed by microscopic observation under stereomicroscope and optical microscope using the phase-contrast method. The final concentrations tested for each sample are stated in Table 3. Table 3 [table]"}, "[5]": {"test_system": "Escherichia coli", "assay": "Minimum biofilm inhibitory concentration (MBIC), crystal violet staining, comparison with fosfomycin", "settings": "E. coli; 24 h", "experimental": "as §8"}, "[6]": {"test_system": "Klebsiella pneumoniae", "assay": "Minimum biofilm inhibitory concentration (MBIC), crystal violet staining, comparison with fosfomycin", "settings": "K. pneumoniae; 24 h", "experimental": "as §8"}, "[7]": {"test_system": "Enterococcus faecium", "assay": "Minimum biofilm eradication concentration (MBEC), 72 h preformed biofilm, crystal violet staining", "settings": "E. faecium; fosfomycin 3000-23.44 µg/mL tested", "experimental": "(§9) To determine the minimum biofilm eradication concentration, 48-well plates were utilised. The microorganisms were incubated for 72 h at 37°C to allow the formation of the biofilm. Once formed, the biofilm was treated with fosfomycin and with the product Comp. 1 in Example 10. In particular, after the formation of the biofilm, the supernatant was suctioned and replaced with solutions containing gradually decreasing concentrations of product or of fosfomycin. The plates thus prepared were incubated for 24 h at 37°C. At the end of the incubation time, the supernatant present in each well was removed, together with the bacteria that was not attached to the plate and, after washing, the plates were incubated at 60°C for 2 hours to fix the cells before the staining with crystal violet. The crystal violet staining was performed to assess the effect of the product and the fosfomycin on the removal of the biofilm. 50 µL crystal violet dissolved in deionised water was dispensed into each well. After 5 minutes of incubation at room temperature, each well was washed three times with PBS 1x. The biofilm eradication activity was viewed under microscopic observation (Figures 7-9). The final concentrations tested for each product are stated in Table 4 Table 4 [table]"}, "[8]": {"test_system": "Escherichia coli", "assay": "Minimum biofilm eradication concentration (MBEC), 72 h preformed biofilm, crystal violet staining", "settings": "E.coli; fosfomycin 30000-234.38 µg/mL tested", "experimental": "as §9"}, "[9]": {"test_system": "Klebsiella pneumoniae", "assay": "Minimum biofilm eradication concentration (MBEC), 72 h preformed biofilm, crystal violet staining", "settings": "K. pneumoniae; 72 h biofilm, 24 h treatment", "experimental": "as §9"}}}
{"smiles": "C[C@@H]1O[C@@H]1P(=O)(O)O", "note": "[fosfomycin, Fosfomycin]", "values": [{"measurement": "MIC", "setting": "[1]", "value": 19.5, "unit": "mg/L"}, {"measurement": "MIC", "setting": "[2]", "value": 5000, "unit": "mg/L"}, {"measurement": "MIC", "setting": "[3]", "value": 78.1, "unit": "mg/L"}, {"measurement": "concentration necessary for biofilm inhibition effect", "setting": "[4]", "value": "at least 321 µg/mL"}, {"measurement": "concentrations with a biofilm inhibition effect", "setting": "[5]", "value": "≥ 78", "unit": "µg/mL"}, {"measurement": "concentrations with a biofilm inhibition effect", "setting": "[6]", "value": "≥ 78", "unit": "µg/mL"}, {"measurement": "biofilm eradication effect", "setting": "[7]", "value": "did not seem to have a biofilm eradication effect"}, {"measurement": "biofilm eradication effect", "setting": "[8]", "value": "did not seem to have a biofilm eradication effect"}, {"measurement": "concentrations with biofilm eradication activity", "setting": "[9]", "value": "greater than 468 µg/mL"}]}
